The target of the assay is T1, SV3CP (Southampton norovirus 3CL^pro) (Southampton virus (serotype 3), UniProt Q04544).
T1 construct: gene ORF1; mature 3C-like protease (NS6) cut from the ORF1 non-structural polyprotein; purified as in Hussey et al. 2011; mass 19,290 Da (intact); dimer in asymmetric unit, putative crystallographic tetramer
Kind of assay: chromogenic protease assay, […] nm. The class given is biochemical.

Molecules are shown by their SMILES. Like-named read-outs stand apart in the source and are kept apart here.

In general, Ki refers to a dissociation constant, usually derived from enzyme kinetics or from competition with a known ligand.

T1 sequence (Q04544 1100-1280): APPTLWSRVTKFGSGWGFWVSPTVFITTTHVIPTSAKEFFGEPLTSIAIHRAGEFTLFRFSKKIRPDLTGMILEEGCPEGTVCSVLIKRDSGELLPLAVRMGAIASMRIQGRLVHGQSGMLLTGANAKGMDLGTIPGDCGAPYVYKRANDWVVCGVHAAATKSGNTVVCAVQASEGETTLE

`Cc1ccc(CNc2cccc(C(=O)O)c2)s1` [J01]: the inhibitory constant (Ki) (read-out: Ki) was determined as 370 µM.

`O=C(O)c1csc(-c2ccc(C(F)(F)F)cc2)n1` [J02] returned a Ki of 340 µM.
